Key:
mice = assay: Characterization of subacute MPTP model (striatal dopamine, splenocyte counts); type: in vivo, mouse
Protocol: To establish a subacute MPTP model, we tested administration of 10 mg/kg/day and 20 mg/kg/day MPTP for consecutive 5 days.
Data are represented as mean±SEM.

[1] = system: humans with type 1 diabetes; conditions: injections; cited from earlier work
[2] = system: mouse models of Alzheimer's disease; conditions: without adjuvant; cited from earlier work
chronic MPTP model = assay: Vaccination in chronic MPTP model (striatal DA and DAT); type: in vivo, C57BL/6 mice

With `CN1CC=C(c2ccccc2)CC1` [MPTP, 1-Methyl-4-Phenyl-1,2,3,6-Tetrahydro-Pyridine] the “effect on striatal dopamine levels” value (mice; 10 mg/kg/day MPTP for 5 days, four days after the last treatment) was “no obvious effect”, the “decrease of striatal dopamine level compared to PBS treated mice” value (mice; 20 mg/kg/day MPTP for 5 days, four days after the last treatment) was 70% and the “effect on splenocyte counts (immunotoxicity)” value (mice; subacute MPTP, 10 and 20 mg/kg/day for 5 days) was “did not affect”.
For “GAD65: isoform of glutamic acid decarboxylase, 65 kDa”, the “preservation of some insulin production” value [1] is given as 30 months.
In the case of “glatiramer acetate [Copaxone (without adjuvant)]”, the “effect in mouse models of Alzheimer's disease” value [2] is listed as “beneficial” and the “protection of striatal dopamine (DA) and dopamine transporter (DAT)” value (chronic MPTP model) is listed as “no protective effect”.

From patent US20130156728A1, “COMPOSITION FOR NEUROLOGICAL OR AUTOIMMUNE DISEASES” (National Institutes of Health (NIH), U.S. Dept. of Health …, priority 2010, published 2013)
